Results taken from paper PMC10730852 (Communications Biology, 2023).
“And” between values parts separate entries of the source, which are not always exact repeats. Equal entries are not always repeated. Where two headings read alike, the source gives them in different places. Starred links: 1 amine or outer side, 2 acyl side, 3 side chain; linkers in the order of their positions; H or OH if unused. Positions of bridges follow the written chain, without caps; N, C: chain ends. Non-standard residues stand in square brackets, D forms with d. Residues, ends and D or L forms follow the SMILES beside them. *: point of attachment. X1 = NC1=N[C@@H]([C@H](N[*:1])C(=O)[*:2])C[C@H](O)N1; ΔAla(Z-3-ureido) = NC(=O)N/C=C(\N)C(=O)O; β3hOrn = NCCC[C@H](N)CC(=O)*; Dap = NC[C@H](N)C(=O)O

Assays:
Cph001 [1] = test: Coupled enzyme assay and Michaelis-Menten kinetics of Cph001; assay type: biochemical, Streptosporangium roseum; settings: for initial velocity, Figure 3c iv, Triplicate: 20 mM CMN IIA; for phosphorylation by Cph001 in couple enzyme assay: 2 mM antibiotic substrate, ATP as phosphate donor, absorbance at 340 nm; for absorbance at 340 nm, Average of triplicate: 2 mM substrate + ATP
Procedure: The phosphorylation reaction was measured by a coupled enzyme assay as following. […] The reactions were mixed well in a final volume of 200 μL in 96-well plates. The Cph001 activity was assayed by determining the oxidation of NADH at 340 nm. The reaction buffer and enzyme concentration of the Cph reaction was followed by previous study. The 340 nm absorbance changes were detected at 30 °C for every 1 min at a time in 15 min on an EPOCH Microplate Reader (BioTek). All reactions were carried out in triplicate.
The initial velocity data were plotted against substrate concentrations and fit the Michaelis-Menten equation. The Km and Vmax values were calculated based on the Michaelis-Menten equation. GraphPad Prism was used for statistical data analysis. All reactions were carried out in triplicate.

[2] = tested on: E. coli/pET-22b (Control); test: Disk diffusion assay; assay type: cell-based, E. coli BL21 Rosetta (DE3); settings: Escherichia coli, 37 °C, 24 hr, read-out: inhibition zones
Procedure: The E. coli BL21 Rosetta (DE3) strains containing pET22b, and its carrying cph, cph001, cph002, cph003, aph(3′)-Ia, and mphB plasmids were cultured overnight. The cells, respectively, were then diluted to 0.1 OD600 in molten LB agar with 100 μg/mL ampicillin and 500 μM IPTG for the disk diffusion assay. The cells with ampicillin and IPTG were mixed well with molten LB agar and then poured into 10 cm diameter Petri dishes. […] The Petri dishes were placed in the incubator at 37 °C and the inhibition zones were observed after 24 hr.

Cph001 [3] = molecular target: T1, Cph001 (Streptosporangium roseum, UniProt D2B3F1); test: Isothermal titration calorimetry (ITC) analysis of Cph001; assay type: binding
T1 sequence (D2B3F1 1-286): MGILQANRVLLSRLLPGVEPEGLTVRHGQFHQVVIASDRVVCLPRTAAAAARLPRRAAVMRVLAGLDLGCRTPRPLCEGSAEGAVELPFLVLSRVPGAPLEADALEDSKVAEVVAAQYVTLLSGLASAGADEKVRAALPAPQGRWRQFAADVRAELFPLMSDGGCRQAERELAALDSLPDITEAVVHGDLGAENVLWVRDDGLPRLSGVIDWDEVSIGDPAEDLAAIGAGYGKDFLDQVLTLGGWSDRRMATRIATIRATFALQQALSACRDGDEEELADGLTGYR
Excerpt: The integrated heat areas constitute a differential binding curve that was fitted with a standard single-site binding model by Origin 7.

E. coli/cph = test: Disk diffusion assay; assay type: cell-based, E. coli BL21 Rosetta (DE3); settings: Escherichia coli, 24 h, read-out: inhibition zones
Procedure: (§1) The E. coli BL21 Rosetta (DE3) strains containing pET22b, and its carrying cph, cph001, cph002, cph003, aph(3′)-Ia, and mphB plasmids were cultured overnight. The cells, respectively, were then diluted to 0.1 OD600 in molten LB agar with 100 μg/mL ampicillin and 500 μM IPTG for the disk diffusion assay. The cells with ampicillin and IPTG were mixed well with molten LB agar and then poured into 10 cm diameter Petri dishes. The 7 mm disks were placed onto the LB agar and gently loaded with varying quantities of CMN IIA, CMN IIB, VIO, Kan, and Ery, ranging from 0 to 200 μg. The Petri dishes were placed in the incubator at 37 °C and the inhibition zones were observed after 24 hr.

E. coli/cph001 = test: Disk diffusion assay; assay type: cell-based, E. coli BL21 Rosetta (DE3)
Procedure: as §1

[4] = parameters: method as in earlier work; settings: ref Antimicrob. Agents Chemother. 60, 4786, 2016 and Antimicrob. Agents Chemother. 62, e01724, 2018, cited from earlier work
[5] = Escherichia coli, 24 h, read-out: inhibition zones

Nc1nc2c(ncn2[C@@H]2O[C@H](COP(=O)(O)OP(=O)(O)OP(=O)(O)O)[C@@H](O)[C@H]2O)c(=O)[nH]1 [GTP]
initial velocity, Figure 3c iv, Triplicate (Cph001 [1]; 0.02 mM GTP): 9.164e-5 and 7.331e-5 and 0.0001283 | initial velocity, Figure 3c iv, Triplicate (Cph001 [1]; 0.05 mM GTP): 9.164e-5 and 0.0001521 and 0.0001466 | initial velocity, Figure 3c iv, Triplicate (Cph001 [1]; 0.1 mM GTP): 0.0002053 and 0.0001576 and 0.0002218 | initial velocity, Figure 3c iv, Triplicate (Cph001 [1]; 0.2 mM GTP): 0.0003519 and 0.0003501 and 0.0003886 | initial velocity, Figure 3c iv, Triplicate (Cph001 [1]; 0.4 mM GTP): 0.0005242 and 0.0006232 and 0.0004326 | initial velocity, Figure 3c iv, Triplicate (Cph001 [1]; 0.6 mM GTP): 0.0006012 and 0.0005554 and 0.000493 | initial velocity, Figure 3c iv, Triplicate (Cph001 [1]; 1 mM GTP): 0.0006525 and 0.0006232 and 0.000592 | initial velocity, Figure 3c iv, Triplicate (Cph001 [1]; 2 mM GTP): 0.0006287 and 0.0006397 and 0.0005095 | kcat, phosphate donor varied (Cph001 [1]; in the presence of saturating CMN IIA (20 mM), mean ± SEM, n = 3): 0.91 ± 0.04 min⁻¹ | Km (Cph001 [1]; in the presence of saturating CMN IIA (20 mM), mean ± SEM, n = 3, read-out: apparent Km of the phosphate donor): 180 ± 30 µM

NC[C@H]1O[C@H](O[C@H]2[C@H](O)[C@@H](O[C@H]3O[C@H](CO)[C@@H](O)[C@H](N)[C@H]3O)[C@H](N)C[C@@H]2N)[C@H](O)[C@@H](O)[C@@H]1O [Kan, kanamycin]
phosphorylation by Cph001 in couple enzyme assay (Cph001 [1]): only capable of phosphorylating VIO

NCCC[C@H](N)CC(=O)N[C@H]1CNC(=O)[C@H]([C@H]2C[C@H](O)NC(N)=N2)NC(=O)/C(=C/NC(N)=O)NC(=O)[C@H](CO)NC(=O)[C@H](CO)NC1=O [VIO, viomycin] (β3hOrn-[Dap]SS[ΔAla(Z-3-ureido)][X1]; lactam 1-C)
zone of inhibition at 12.5 µg/disc ([2]; 12.5 μg on disk): 23.5 mm | zone of inhibition at 50 µg/disc ([2]; 50 μg on disk): 27 mm | zone of inhibition at 100 µg/disc ([2]; 100 μg on disk): 29 mm | zone of inhibition at 200 µg/disc ([2]; 200 μg on disk): 30 mm | phosphorylation by Cph001 in couple enzyme assay (Cph001 [1]): only capable of phosphorylating VIO | absorbance at 340 nm, Average of triplicate (Cph001 [1]; time 00:00:00): 1.495 | absorbance at 340 nm, Average of triplicate (Cph001 [1]; time 00:01:00): 1.515 | absorbance at 340 nm, Average of triplicate (Cph001 [1]; time 00:02:00): 1.474 | absorbance at 340 nm, Average of triplicate (Cph001 [1]; time 00:03:00): 1.3778 | absorbance at 340 nm, Average of triplicate (Cph001 [1]; time 00:04:00): 1.2968 | absorbance at 340 nm, Average of triplicate (Cph001 [1]; time 00:05:00): 1.217 | absorbance at 340 nm, Average of triplicate (Cph001 [1]; time 00:06:00): 1.012 | absorbance at 340 nm, Average of triplicate (Cph001 [1]; time 00:07:00): 0.8175 | absorbance at 340 nm, Average of triplicate (Cph001 [1]; time 00:08:00): 0.6031 | absorbance at 340 nm, Average of triplicate (Cph001 [1]; time 00:09:00): 0.4177 | absorbance at 340 nm, Average of triplicate (Cph001 [1]; time 00:10:00): 0.2691 | absorbance at 340 nm, Average of triplicate (Cph001 [1]; time 00:11:00): 0.254 | absorbance at 340 nm, Average of triplicate (Cph001 [1]; time 00:12:00): 0.2155 | absorbance at 340 nm, Average of triplicate (Cph001 [1]; time 00:13:00): 0.1675 | absorbance at 340 nm, Average of triplicate (Cph001 [1]; time 00:14:00): 0.1401 | absorbance at 340 nm, Average of triplicate (Cph001 [1]; time 00:15:00): 0.1225 | Kd (Cph001 [3]): 4.18 ± 0.68 µM | zone of inhibition at 12.5 µg/disc (E. coli/cph): 8.5 mm | zone of inhibition at 50 µg/disc (E. coli/cph): 10 mm | zone of inhibition at 100 µg/disc (E. coli/cph): 11 mm | zone of inhibition at 200 µg/disc (E. coli/cph): 12 mm | resistance in disk diffusion assay (E. coli/cph001; E. coli harboring cph001): resistant | zone of inhibition at 12.5 µg/disc (E. coli/cph001; [5]): 8 mm | zone of inhibition at 50 µg/disc (E. coli/cph001; [5]): 12 mm | zone of inhibition at 100 µg/disc (E. coli/cph001; [5]): 15 mm | zone of inhibition at 200 µg/disc (E. coli/cph001; [5]): 17.5 mm

capreomycin
MIC ([4]; approximate molar equivalent): 1.5 to 4.5 µM | MIC [4]: 1 to 3 µg/mL
